Holding throughout (assay type): cell-based
In assay [1] the target is T1, IRAK4 (Homo sapiens, UniProt Q9NWZ3).
T1 construct: endogenous in cells; host or cells: Karpas299
T1 sequence (Q9NWZ3 1-460): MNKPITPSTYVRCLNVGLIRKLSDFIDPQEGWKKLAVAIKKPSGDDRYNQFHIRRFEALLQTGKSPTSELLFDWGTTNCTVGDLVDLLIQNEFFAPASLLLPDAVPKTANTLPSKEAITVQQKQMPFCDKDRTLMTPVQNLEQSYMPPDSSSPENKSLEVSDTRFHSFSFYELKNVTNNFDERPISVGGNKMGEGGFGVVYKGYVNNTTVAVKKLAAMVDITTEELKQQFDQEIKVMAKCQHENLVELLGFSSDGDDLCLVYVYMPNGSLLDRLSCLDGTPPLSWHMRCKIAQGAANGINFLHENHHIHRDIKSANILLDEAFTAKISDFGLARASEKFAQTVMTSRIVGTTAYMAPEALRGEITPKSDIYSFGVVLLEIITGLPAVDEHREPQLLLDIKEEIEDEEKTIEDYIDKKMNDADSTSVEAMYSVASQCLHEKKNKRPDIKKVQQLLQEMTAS
Briefly: IRAK4 Degradation Assay (Karpas299, HTRF/TR-FRET). The settings on record: Karpas-299 cells; for Dmax: maximum percentage of degradation. The method in brief: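 Compound potency as DC50 (IC50) came from four-parameter fits of percent IRAK4 degradation. IRAK4 was measured by HTRF (665/620 nm) in lysates of Karpas299 cells seeded at 0.2 million per well. Cells had been treated with compound dilutions for 5 or 24 h.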
On the technique in general: In TR-FRET formats the signal depends on donor and acceptor labels being close together.

Assay [2] deals with T1, IRAK4. Briefly: IRAK4 Degradation Assay with Human Serum (Karpas299, HTRF/TR-FRET). The settings on record: Karpas-299 in human serum, 24 hrs treatment. A digest of the protocol:
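Remaining IRAK4 measured by TR-FRET immunoassay on lysates of Karpas299 cells exposed 24 h to compound dilution series in human serum AB. DC50 derived from a Hill-slope fit of % degradation versus concentration.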

Assay [3] concerns TNF-α production in THP-1 cells. Briefly: TNF-α Production Assay in THP-1 Cells (LPS stimulated). The settings on record: Homo sapiens, THP-1, 24 h. A digest of the protocol:
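Cells (0.2 million/well) pretreated with compounds for 24 h, then stimulated with LPS at 1 μg/mL final for 24 h. TNF-α in culture supernatant quantified by TR-FRET immunoassay.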

In assay [4] the test system is IL-6 production in human PBMC. Briefly: IL-6 Production Assay in Human PBMC (LPS stimulated). The settings on record: Homo sapiens, 5 h. A digest of the protocol: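 Thawed PBMC were rested overnight at 37 °C, seeded at 0.2 million cells/well and pretreated with compounds for 24 h. They were then stimulated with LPS at 10 ng/mL for 5 h. IL-6 in the supernatant was quantified by TR-FRET.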

For orientation: Dmax means the largest share of the target that was removed. Usually DC50 stands for the concentration giving 50% degradation. Broadly, the IC50 is the midpoint of a concentration-inhibition curve.

On to `Cc1nc(C2CCC(=O)NC2=O)ccc1N1CCC(N2CCN([C@H]3CC[C@H](n4cc5cc(NC(=O)c6ccc7cc(C#N)cnn67)c(C(C)(C)O)cc5n4)CC3)CC2)CC1` (stereo partly shown) [Example 398, 3-cyano-N-(2-((1r,4r)-4-(4-(1-(6-(2,6-dioxopiperidin-3-yl)-2-methylpyridin-3-yl)piperidin-4-yl)piperazin-1-yl)cyclohexyl)-6-(2-hydroxypropan-2-yl)-2H-indazol-5-yl)pyrrolo[1,2-b]pyridazine-7-carboxamide], for which the maximal degradation (Dmax) on IRAK4 [1] (5 h treatment, read-out: IRAK4 in Karpas-299 (5 h) Dmax (%)) came out at 97%; on IRAK4 [1] (24 h treatment, read-out: IRAK4 in Karpas-299 (24 h) Dmax (%)), 97%; on IRAK4 [2] (read-out: IRAK4 degradtion with human serum assay Dmax (%)), 98%. Also, the DC50 on IRAK4 [1] (5 h treatment, read-out: IRAK4 in Karpas-299 (5 h) DC50) was 1.9 nM; on IRAK4 [1] (24 h treatment, read-out: IRAK4 in Karpas-299 (24 h) DC50), 2.3 nM; on IRAK4 [2] (read-out: IRAK4 degradtion with human serum assay DC50), 2.6 nM. In addition, the figures for the IC50 in assay [3] and in assay [4] were 21 nM and 2.4 nM, respectively. In addition, the Emax in assay [3] (maximum inhibition, read-out: TNF-α (THP-1) 24 h IMax) was 97%; in assay [4] (maximum inhibition, read-out: IL-6 (PBMC) 5 h IMax) it was 70%.

Source of the values: US20250195513A1, “DEGRADATION OF IRAK4 BY CONJUGATION OF IRAK4 INHIBITORS WITH E3 LIGASE LIGAND AND METHODS OF USE” (BeiGene, Ltd., priority 2022, published 2025).
